From US11434195B2, “Compositions and methods for treatment of central nervous system tumors” (UNIVERSITY OF FLORIDA RESEARCH FOUNDATION, INC., priority 2017, dated 2022) come the findings set out here.

Molecules are shown by their SMILES. Entries after “also recorded” stand apart in the source; their conditions may differ. Structures can show the parent of a compound that is named as a salt. Where two headings read alike, the source gives them in different places.

In series [1] the test system is adherent CA1 human glioblastoma multiforme cells. Kind of series: Viability/proliferation of adherent CA1 glioblastoma cells (MTS). Format: cell-based. The following applies: for IC50: Homo sapiens. Here is the method:
In addition, glioma cells were cultured (adherent) in DMEM/F12 medium with 10% FBS to attain about 70% confluency. AIP (ranging from about 1 μM to about 100 μM) was added once or twice as above for 24 hours, 48 hours, or 72 hours and analyzed at these time points for proliferation, cell death and markers.
Ales were screened in patient glioblastoma cells CA1 cells proliferating in adherent cultures. Briefly, cells were cultured in DMEM/F12 medium with 10% FBS to attain about 70% confluency. AIP1, AIP2, or vehicle (control) were added for 24 hours and analyzed for proliferation and survival. […] Cell viability/proliferation was measured by MTS added for additional 2-3 hours (FIG. 10A). Microphotographs of the cells were taken with Hoffman modulation-equipped phase-contrast microscope (FIG. 10B; x20 magnification is shown).

Series [2] is described as follows: Tissue accumulation after intraperitoneal injection. The following applies: mice, hydrochloride. Format: in vivo. The method, then: To assure brain bioavailability of the inventive compounds, time-dependent brain, liver and […] AIP accumulation was measured after intraperitoneal injection of 2.0 mg AIP2. Mice were sacrificed at specific times following injection. Tissues (blood, brain and liver) were taken, and the lipids extracted, loaded on silica-gel column, washed with diethyl ether, and eluted with 10% ethyl acetate in hexane. The eluates were further purified using gradient HPLC on a C8 reverse phase column and the AIP-corresponding fraction was collected and quantitatively analyzed by […], coupled with electrospray ionization-mass-spectroscopy using internal AIP standard.

Series [3] concerns primary human hepatocytes. Kind of series: Survival of primary human hepatocytes. The following applies: up to 50 μM. Format: cell-based. Here is the method:
The cell integrity and structural architecture were not altered following incubation with AIPs for a week (see FIG. 11B).

The next series relates to AKT. Kind of series: AKT kinase activity / basal AKT phosphorylation in HUH-7 cells. Format: cell-based, human. The following applies: proliferating HUH-7 cells, 10 μM.
Series [4] concerns CA1 cancer stem cell-derived carcinoid bodies ('carcinospheres'). Put plainly: Carcinoid sphere model of tumor-initiating glioblastoma stem cells. Format: cell-based. The following applies: Homo sapiens. Here is the method:
Human glioblastoma cell lines CA1 (also sometimes referred to as BT73) and L1 are cells are available from the Florida Center for Brain Tumor Research University of Florida Biorepository. Glioma cells (for example CA1, U87MG or L1), are suspended by trituration as single cells and plated at a density of about 25,000 cells/mL in low adhesion plates in Neurobasal® medium containing 1% methylcellulose and growth factors. The cultures are treated with single or repeated doses of AIPs (ranging from 0.1 to 20 […]) or vehicle (control) and maintained for 24 hours, 72 hours and 7 days. The number and size of ‘carcinoid’ spheres are quantitated by inverted phase contrast microscopy, and spheres collected for analysis for determination of survival and growth/proliferation.
This suppression of tumor-initiating glioblastoma multiforme stem/progenitor cells was determined using a ‘carcinoid sphere’ model in serum- and in anchorage-free media. The ability to block cancer stem cell activation and to destroy them is very useful for strategies to prevent glioblastoma recurrence. Here, AIPs blocked completely the activation of tumor-initiating CA1 cells and formation of carcinospheres at ≥2 μM concentrations. […] FIG. 9B is a set of representative photographs of the cells treated as indicated.
With respect to methods, generation of carcinoid spheres from GBM was performed essentially as described previously (Cao et al., Composite fatty acid ether amides suppress growth of liver cancer cells in vitro and in an in vivo allograft mouse model, Cell. Oncol. 36(3):247-257, 2013 and Reinartz et al., Functional Subclone Profiling for Prediction of Treatment-Induced Intratumor Population Shifts and Discovery of Rational Drug Combinations in Human Glioblastoma, Clinical Cancer Research: an official journal of the American Association for Cancer Research 23(2):562-574, 2017). […] The number and size of spheres were quantitated by inverted phase contrast microscopy. […]

As usually defined, the IC50 is the concentration that gives 50% inhibition. Take `CCCCCCCC/C=C\CCCCCCCCOCC(O)CNC(C)C` (stereo not shown) [AIP2, Octadecenyloxy-3-isopropylamine-propan-2-ol hydrochloride]: in series [1] (20 μM, hydrochloride), the “Effect on adherent CA1 glioblastoma cells” value was “complete shutdown of metabolic activity; also recorded: destroyed all cancer cells”. The IC50 in series [1] (read-out: IC50, growth and survival of human malignant glioblastoma cells (CA1)) came to 6900 nM; in series [1] (read-out: IC50, proliferating glioblastoma cells), 7100 nM; in series [4] (read-out: IC50, block of development of brain tumor-initiating stem cells), 1100 nM; in series [4] (read-out: IC50, formation and growth of CA1 cancer stem cell-derived carcinoid bodies), 1100 nM; in series [4] (read-out: IC50, inhibition of brain tumor-initiating cancer stem cells) it was 1100 nM. For the same compound, in series [2] (24 hours after intraperitoneal injection), the Blood-brain barrier penetration result was “able to cross the blood-brain barrier; also recorded: significant blood-brain-barrier (BBB) penetration”. Moreover, the “Tissue accumulation of non-metabolized compound” value in series [2] (intraperitoneal injection of 2 mg, up to 24 hours) is “did accumulate in brain tissue; also recorded: accumulated in brain and liver in a time-dependent fashion”. For the same compound, in series [3], the “Survival of primary human hepatocytes” value is recorded as “did not reduce survival”. In addition, the “Basal AKT phosphorylation” value with AKT was “blocked basal AKT phosphorylation”.
